Patent publication US3932650A, “Trans-octahydropyridoindolobenzazepines as central nervous system depressants” (E. I. Du Pont de Nemours & Company, priority 1973, dated 1976)
Where two headings read alike, the source gives them in different places.

Key:
[1] = tested on: locomotor activity; experiment: Decreased Locomotor Activity (L.M.A.), mouse; format: in vivo; settings: po, read-out: L.M.A. MED
Protocol: (§1) Decreased Locomotor Activity (L.M.A.)
(§2) This reaction sign is measured subjectively by observing how an animal behaves when it is removed from an observation cage and placed on a table top. […] The degree of stimulation by the observer needed to produce active locomotion is rated on an arbitrary scale. This ranges from a score of -1 where only a slight touch of the animal's body is required to a -4 where the animal is unresponsive or minimally responsive to the application of a pain stimulus (pressure at the base of the tail). The minimal effective dose (MED) is the lowest oral dose producting an obvious decrease of locomotor activity (with a score of at least -1). Groups of 3 mice are given decreasing oral doses at 0.5 log intervals (300, 100, 30. . .etc.) until no behavioral effects are evident. Decrease of locomotor activity is indicative of general central nervous system depressant activity.

[2] = tested on: locomotor activity; experiment: Decreased Locomotor Activity (L.M.A.), rat; format: in vivo; settings: po, read-out: L.M.A. MED
Protocol: as §1, §2

[3] = tested on: eyelid closure (ptosis); experiment: Ptosis, mouse; format: in vivo; settings: po, read-out: Ptosis MED
[4] = tested on: eyelid closure (ptosis); experiment: Ptosis, rat; format: in vivo; settings: po, read-out: Ptosis MED
Description: Degree of eyelid closure is used as a measure of central nervous system depression. An animal is removed from its observation cage and allowed to remain outside the cage for 30 seconds. At the end of this time a rating of degree of eyelid closure is made on an arbitrary scale.

[5] = tested on: catalepsy; experiment: Catalepsy, mouse; format: in vivo; settings: po, read-out: Catalepsy MED
Description: (§3) The ability of an animal to remain in an abnormal position is used as another indication of central nervous system depressant activity. A test animal is removed from its observation cage and positioned so that its hind legs are on the table top and its front legs rest on the side of the observation cage. If an animal maintains this position for at least 10 seconds, it is considered to be showing cataleptic behavior.

[6] = tested on: catalepsy; experiment: Catalepsy, rat; format: in vivo; settings: po, read-out: Catalepsy MED
Description: as §3

[7] = tested on: phenyl-p-benzoquinone-induced writhing; experiment: Phenylquinone Writhing (P.Q.W.); format: in vivo, mouse; settings: po
[8] = tested on: TBZ-induced ptosis; experiment: Tetrabenazine Antagonism (T.B.Z.A.), mouse; format: in vivo; settings: po, 1 h, read-out: T.B.Z.A. ED50
Protocol: (§4) Tetrabenazine Antagonism (T.B.Z.A.)
(§5) The tetrabenazine (TBZ) antagonism test is used to test for potential antidepressant-like activity in rodents. One hour after oral administration of a test compound, a 40 mg/kg dose of TBZ is given subcutaneously. Thirty minutes after TBZ administration, the mice are placed in the center of a circle; the diameter of the circle is twice the body length of the mouse or rat. After 30 seconds, a reading is made of the degree of ptosis and whether the animal has moved out of the circle. Animals that have received only TBZ will show marked ptosis and immobility. Tricyclic antidepressants of the imipramine type will antagonize the ptosis but not the immobility. Antidepressants of the amphetamine or monoamine oxidase inhibitory type will antagonize both the ptosis and immobility induced by TBZ. The ED50 is the dose producing antagonism of TBZ-induced ptosis, but not of TBZ-induced immobility, in 50% of the animals.

[9] = tested on: TBZ-induced ptosis; experiment: Tetrabenazine Antagonism (T.B.Z.A.), rat; format: in vivo; settings: po, 1 h, read-out: T.B.Z.A. ED50
Protocol: as §4, §5

[10] = tested on: fear / feeding in approach-avoidance conflict; experiment: Rat Conflict (Approach-Avoidance) Test; format: in vivo; settings: po, read-out: Conflict MED
Protocol: Rat Conflict (Approach-Avoidance) Test (Conflict)
Results given in: mg/kg po/rat
Food deprived rats are trained to pass from one compartment to an adjacent one to obtain food. The training consists of 3 exposures to the test situation on day one of the experiment. The rats are given limited (1-2 hr) free access to food in their home cages on day one and are then food deprived for at least 18 hours. On day two of the experiment, the rats are given a control exposure to the test situation followed by a second exposure after one-half to 1 hour in which they are shocked after crossing and eating. Groups of 6-8 rats are then dosed orally with solvent or test compound and then re-exposed to the test situation after 1 or 2 hours.
Compounds showing minor tranquilizer (anxiolytic) activity in man such as diazepam and meprobamate produce an apparent decreased fear in the test animals so that they cross to obtain food despite having received a shock earlier. This effect is dose-related (and the MED is the minimum dose at which this effect is obtained); rats dosed with solvent only consistently show a high level of fear as evidenced by decreased mobility and absence of feeding when placed in the test situation after receiving a shock.

[11] = tested on: conditioned avoidance response; experiment: Conditioned Avoidance Response (C.A.R.), mouse; format: in vivo; settings: po, read-out: C.A.R. ED50
Protocol: (§6) Mouse and Rat Conditioned Avoidance Response (C.A.R.):
(§7) Mice and rats are trained to jump out of a pit onto a ledge to avoid shock when presented with a light and sound conditioned stimulus. The animals are tested 1, 2, and 4 hours after administration of the test compound. Three to four dose levels and groups of 4-8 animals/dose are used. The ED50 is the dose producing a block of the C.A.R. in 50% of the animals. Blocking of the C.A.R. at non-toxic doses appears to correlate with major tranquilizer activity in man.

[12] = tested on: conditioned avoidance response; experiment: Conditioned Avoidance Response (C.A.R.), rat; format: in vivo; settings: po, read-out: C.A.R. ED50
Protocol: as §6, §7

[13] = tested on: conditioned avoidance response; experiment: Dog Conditioned Avoidance Response (C.A.R.); format: in vivo; settings: Canis lupus familiaris, po, read-out: C.A.R. ED50
Protocol: Dog Conditioned Avoidance Response (C.A.R.):
Results given in: mg/kg po/dog
Dogs are trained to raise a forelimb when presented with a conditioned stimulus (light) in order to avoid an electric shock. Blocks of 10 trials are given to groups of 4 dogs during a pretreatment period and at 1, 2, and 4 hours after oral administration of the test compound. The ED50 values are calculated as the dose causing 50% of the animals to show 5 or more incorrect responses. Blocking of the C.A.R. at non-toxic doses appears to correlate with major tranquilizer activity in man.

[14] = tested on: taming; experiment: Rhesus Monkey Taming Effects; format: in vivo; settings: Macaca mulatta, po, read-out: Taming MED
Protocol: Rhesus Monkey Taming Effects (Taming):
Results given in: mg/kg po/monkey
Compounds are administered orally to groups of 6 rhesus monkeys. The behavior of the animals is then evaluated by observational means. Taming effects are determined by the ability of the observer to approach and touch the monkey. Compounds with major tranquilizer activity in man can produce a state of passive tameness in the rhesus monkey wherein it can be touched without provoking any of the threatening or aggressive behavior seen in the normal animal. The MED is the minimal oral dose at which some taming effect can be observed.

[15] = 0.5 h, mouse, phenyl-p-benzoquinone 2.5 mg/kg i.p. 30 minutes after compound, read-out: P.Q.W. ED50
[16] = mouse, TBZ 40 mg/kg s.c. one hour after compound
[17] = rat, TBZ 40 mg/kg s.c. one hour after compound
[18] = mouse, block of C.A.R. in 50% of animals, 1, 2, and 4 hours
[19] = rat, block of C.A.R. in 50% of animals, 1, 2, and 4 hours
[20] = dog, 5 or more incorrect responses in 50% of animals, 1, 2, and 4 hours

| Structure (SMILES) | minimal effective dose ([1]; mouse, minimal effective dose) | minimal effective dose ([2]; minimal effective dose) | minimal effective dose ([3]; mouse, passive ptosis) | minimal effective dose ([4]; rat, passive ptosis) | minimal effective dose ([5]; mouse) | minimal effective dose ([6]; rat) | ED50 [7, 15] | further results |
| --- | --- | --- | --- | --- | --- | --- | --- | --- |
| c1ccc(CN2CC[C@@H]3[C@@H](C2)c2cccc4c2N3c2ccccc2CC4)cc1 (relative stereo) [Example 6, trans-3-Benzyl-1,2,3,4,4a,8,9,14a-octahydropyrido[4',3':2,3]indolo[1,7-ab][1]benzazepine] | 2 mg/kg | 65 mg/kg | 13 mg/kg | 150 mg/kg | 49 mg/kg | > 300 mg/kg | 28 mg/kg | – |
| c1ccc2c(c1)CCc1cccc3c1N2[C@H]1CCN(C[C@H]2[C@@H]4CCCC[C@@H]42)C[C@H]31 (relative stereo) [Example 7, trans-1,2,3,4,4a,8,9,14a-Octahydro-3-(exo-7-norcarylmethyl)pyrido[4',3':2,3] indolo[1,7-ab][1]benzazepine] | 3 mg/kg | 3 mg/kg | 3 mg/kg | 3 mg/kg | 3 mg/kg | 300 mg/kg | 14 mg/kg | – |
| Cl.c1ccc2c(c1)CCc1cccc3c1N2[C@@H]1CCN(CC2CCCC2)C[C@@H]31 (relative stereo) [cyclopentylmethyl, trans-3-cyclopentylmethyl1,2,3,4,4a,8,9,14a-octahydropyrido[4',3':2,3]indolo[1,7-ab][1]benzazepine hydrochloride] | – | – | – | – | – | – | 2 mg/kg | – |
| CN1CC[C@H]2[C@@H](C1)c1cccc3c1N2c1ccccc1CC3 (relative stereo) [methyl octahydro cis] | – | – | – | – | – | – | – | minimal effective dose ([1]; Mus musculus): 30 mg/kg; minimal effective dose [2]: 30 mg/kg; minimal effective dose ([3]; Mus musculus): > 300 mg/kg; minimal effective dose ([4]; Rattus norvegicus): > 300 mg/kg; minimal effective dose ([5]; Mus musculus): > 300 mg/kg; minimal effective dose ([6]; Rattus norvegicus): > 300 mg/kg; ED50 ([8]; Mus musculus): 15 mg/kg; ED50 ([9]; Rattus norvegicus): 7.4 mg/kg; minimal effective dose ([10]; Rattus norvegicus): > 40 mg/kg; ED50 ([11]; Mus musculus, 4 h): > 40 mg/kg; ED50 ([12]; Rattus norvegicus, 4 h): > 40 mg/kg; ED50 ([13]; 4 h): > 30 mg/kg; minimal effective dose [14]: > 20 mg/kg |
| c1ccc(CCN2CC[C@H]3[C@H](C2)c2cccc4c2N3c2ccccc2CC4)cc1 (relative stereo) [phenethyl, trans-1,2,3,4,4a,8,9,14a-octahydro-3-phenethylpyrido[4',3+:2,3]indolo[1,7-ab][1]benzazepine] | – | – | – | – | – | – | 4.7 mg/kg | – |
| c1ccc2c(c1)CCc1cccc3c4c(n-2c13)CCN(CC1CC1)C4 [(cyclopropylmethyl) hexahydro, 3-(cyclopropylmethyl)-1,2,3,4,8,9-hexahydropyrido[4',3':2,3]indolo[1,7-ab][1]benzazepine] | 10 mg/kg | 10 mg/kg | 30 mg/kg | 30 mg/kg | 30 mg/kg | 30 mg/kg | – | ED50 [8, 16]: > 100 mg/kg; ED50 [9, 17]: > 100 mg/kg; minimal effective dose ([10]; rat, after 1 or 2 hours): 10 mg/kg; ED50 [11, 18]: 20 mg/kg; ED50 [12, 19]: 40 mg/kg; ED50 [13, 20]: > 30 mg/kg; minimal effective dose ([14]; rhesus monkey): 3 mg/kg |
| COc1ccc2c3c1O[C@H]1[C@@H](O)C=C[C@H]4[C@@H](C2)N(C)CC[C@@]341 [Codeine phosphate] | – | – | – | – | – | – | – | ED50 ([7]; Mus musculus, read-out: Analgesic ED50): 19 mg/kg |
| CC(=O)Oc1ccccc1C(=O)O [aspirin] | – | – | – | – | – | – | 94 mg/kg | – |
| c1ccc(CN2CCc3c(c4cccc5c4n3-c3ccccc3CC5)C2)cc1 [benzyl hexahydro, 3-benzyl-1,2,3,4,8,9-hexahydropyrido[4',3':2,3]indolo[1,7-ab][1] benzazepine] | ~200 mg/kg | > 300 mg/kg | > 300 mg/kg | > 300 mg/kg | > 300 mg/kg | > 300 mg/kg | – | – |
| COc1ccc2c3c1O[C@H]1[C@@H](O)C=C[C@H]4[C@@H](C2)N(C)CC[C@@]341 [codeine] | – | – | – | – | – | – | – | ED50 ([7]; Mus musculus, 0.5 h, read-out: P.Q.W. ED50): 19 mg/kg |
| CCN1CCc2c(c3cccc4c3n2-c2ccccc2CC4)C1 [ethyl hexahydro] | 30 mg/kg | 30 mg/kg | 30 mg/kg | > 300 mg/kg | > 300 mg/kg | > 300 mg/kg | – | ED50 [8, 16]: > 100 mg/kg; ED50 [9, 17]: > 100 mg/kg; minimal effective dose ([10]; rat, after 1 or 2 hours): 20 mg/kg; ED50 [11, 18]: > 40 mg/kg; ED50 [12, 19]: > 40 mg/kg; ED50 [13, 20]: > 30 mg/kg; minimal effective dose ([14]; rhesus monkey): > 20 mg/kg |
| CC(C)CN1CCc2c(c3cccc4c3n2-c2ccccc2CC4)C1 [isobutyl hexahydro] | ~60 mg/kg | – | ~60 mg/kg | – | ~60 mg/kg | – | – | – |
| CN1CCc2c(c3cccc4c3n2-c2ccccc2CC4)C1 [methyl hexahydro, 1,2,3,4,8,9-hexahydro-3-methylpyrido[4',3':2,3]indolo[1,7-ab][1]benzazepine] | 10 mg/kg | 30 mg/kg | 30 mg/kg | 30 mg/kg | 300 mg/kg | 100 mg/kg | – | ED50 [8, 16]: > 100 mg/kg; ED50 [9, 17]: > 100 mg/kg; minimal effective dose ([10]; rat, after 1 or 2 hours): 20 mg/kg; ED50 [11, 18]: 20 mg/kg; ED50 [12, 19]: 30 mg/kg; ED50 [13, 20]: > 30 mg/kg; minimal effective dose ([14]; rhesus monkey): 10 mg/kg |
